# Results: patent publication US20110178118A1, “PALONOSETRON FOR THE TREATMENT OF CHEMOTHERAPY INDUCED EMESES” (priority 2002, published 2011)
# Like-named read-outs stand apart in the source and are kept apart here. Marks after values point to notes of the source that are not given here.
# Experiments:
# [1] = tested on: Dacarbazine-Induced Emesis; assay: Antagonism of dacarbazine-induced emesis; format: in vivo, dogs; settings: 2 hours prior to dacarbazine 30.0 mg/kg IV, observed 5 hours
# [2] = tested on: cisplatin-induced emesis; assay: Duration of action in cisplatin-treated dogs; format: in vivo
# Experimental: Mean numbers of episodes were computed and the statistical significance of differences between treatment groups were determined with Dunnett's t test. Solutions of palonosetron and comparator drugs (ondansetron and granisetron) were prepared in distilled water. Vehicle control groups received distilled water.
# [3] = tested on: Actinomycin D-Induced Emesis; assay: Antagonism of actinomycin D-induced emesis; format: in vivo, dogs; settings: 2 hours prior to actinomycin D 0.15 mg/kg IV, observed 5 hours
# [4] = tested on: cisplatin-induced emesis; assay: Reversal of cisplatin-induced emesis, intravenous antiemetic one hour after cisplatin; format: in vivo, dogs; settings: for Emetic Episodes (mean ± SD): observed five hours
# Experimental: (§1) The antiemetic effects of intravenously and orally administered palonosetron were assessed in male and female dogs (sexes combined). Antineoplastic agents employed in these experiments included cisplatin (3 mg/kg)), dacarbazine (30 mg/kg), mechlorethamine (0.4 mg/kg) and actinomycin D (0.15 mg/kg). […] Mean numbers of episodes were computed and the statistical significance of differences between treatment groups were determined with Dunnett's t test. Solutions of palonosetron and comparator drugs (ondansetron and granisetron) were prepared in distilled water. Vehicle control groups received distilled water. In a different study, palonosetron and ondansetron were assessed for their relative abilities to reverse cisplatin-induced emesis. In these experiments dogs received intravenous injections of palonosetron, ondansetron, or vehicle one hour after the intravenous administration of 3.0 mg/kg cisplatin. Each animal was observed continuously for five hours following cisplatin administration for the number of emetic episodes.
# [5] = tested on: cisplatin-induced emesis; assay: Anti-emetic effect, oral antiemetic one hour before cisplatin; format: in vivo, dogs; settings: for Emetic Episodes (mean ± SD): observed five hours
# Experimental: as §1, with “The observation of potency differential was further seen during an experiment in which oral dose-response relationships of” for “In a different study,”, “compared in cisplatin-treated dogs. Palonosetron, ondansetron” for “assessed for their relative abilities to reverse cisplatin-induced emesis. In these experiments dogs received intravenous injections of palonosetron, ondansetron,”, “vehicle control were administered by the oral route” for “vehicle”, “prior to” for “after”, “the” for “the intravenous”, “of” for “of 3.0 mg/kg”
# [6] = tested on: cisplatin-induced emesis; assay: Intravenous palonosetron vs ondansetron in cisplatin-treated dogs; format: in vivo; settings: 1.0 mg/kg intravenous; five-hour period following cisplatin 3.0 mg/kg
# Experimental: The antiemetic effects of intravenously and orally administered palonosetron were assessed in male and female dogs (sexes combined). Antineoplastic agents employed in these experiments included cisplatin (3 mg/kg)), dacarbazine (30 mg/kg), mechlorethamine (0.4 mg/kg) and actinomycin D (0.15 mg/kg). […] Mean numbers of episodes were computed and the statistical significance of differences between treatment groups were determined with Dunnett's t test. Solutions of palonosetron and comparator drugs (ondansetron and granisetron) were prepared in distilled water. Vehicle control groups received distilled water. The therapeutic effects of intravenously and orally administered palonosetron were compared to those of ondansetron and vehicle in cisplatin-treated dogs.
# [7] = tested on: Mechlorethamine-Induced Emesis; format: in vivo, dogs; settings: 2 hours prior to mechlorethamine 0.4 mg/kg IV, observed 5 hours
# [8] = intravenous antiemetic 0.01 mg/kg
# [9] = intravenous antiemetic 0.03 mg/kg
# [10] = intravenous antiemetic 0.1 mg/kg
# [11] = intravenous antiemetic 0.3 mg/kg
structure (smiles),measurement,setting,value
"Cc1nccn1CC1CCc2c(c3ccccc3n2C)C1=O (centres unmarked) [Ondansetron, reference compound]",Emetic Episodes (mean ± SD),[1]; [8],11.50 ± 5.51 ^
same,Emetic Episodes (mean ± SD),[1]; [9],8.17 ± 2.79^
same,Emetic Episodes (mean ± SD),[1]; [10],4.83 ± 2.48^d
same,Emetic Episodes (mean ± SD),[1]; [11],1.33 ± 0.82^d
same,Emetic Episodes (mean ± SD),[1]; oral antiemetic 0.03 mg/kg,10.83 ± 2.72 ^
same,Emetic Episodes (mean ± SD),[1]; oral antiemetic 0.1 mg/kg,6.17 ± 5.35^d
same,Emetic Episodes (mean ± SD),[1]; oral antiemetic 0.3 mg/kg,3.00 ± 3.03^d
same,Emetic Episodes (mean ± SD),[1]; oral antiemetic 1 mg/kg,0.17 ± 0.41^d
same,pretreatment time before cisplatin with reduced emetic episodes,[2]; 0.15 mg/kg IV,only after a one-hour pretreatment period
same,Emetic Episodes (mean ± SD),"[2]; 0.15 mg/kg IV, 1 hr pre-cisplatin 3.0 mg/kg IV",7.83 ± 4.12^b
same,Emetic Episodes (mean ± SD),"[2]; 0.15 mg/kg IV, 2 hr pre-cisplatin 3.0 mg/kg IV",10.67 ± 5.28
same,Emetic Episodes (mean ± SD),"[2]; 0.15 mg/kg IV, 4 hr pre-cisplatin 3.0 mg/kg IV",12.67 ± 2.07
same,Emetic Episodes (mean ± SD),"[2]; 0.15 mg/kg IV, 6 hr pre-cisplatin 3.0 mg/kg IV",14.17 ± 6.79
same,Emetic Episodes (mean ± SD),"[2]; 0.15 mg/kg IV, 8 hr pre-cisplatin 3.0 mg/kg IV",15.50 ± 7.29
same,Emetic Episodes (mean ± SD),"[2]; 0.15 mg/kg IV, 10 hr pre-cisplatin 3.0 mg/kg IV",13.83 ± 4.58
same,Emetic Episodes (mean ± SD),"[2]; 0.15 mg/kg IV, 12 hr pre-cisplatin 3.0 mg/kg IV",22.00 ± 8.32
same,"protective effects, pretreatment time prior to cisplatin","[2]; earlier experiment, 0.3 mg/kg, IV",as long as seven hours
same,Emetic Episodes (mean ± SD),[3]; [8],7.67 ± 2.25^d
same,Emetic Episodes (mean ± SD),[3]; [9],14.67 ± 4.68 ^
same,Emetic Episodes (mean ± SD),[3]; [10],12.67 ± 3.45 ^
same,Emetic Episodes (mean ± SD),[3]; [11],5.83 ± 4.45^d
same,Emetic Episodes (mean ± SD),[3]; oral antiemetic 0.03 mg/kg,9.83 ± 7.52^
same,Emetic Episodes (mean ± SD),[3]; oral antiemetic 0.1 mg/kg,10.33 ± 4.84 ^
same,Emetic Episodes (mean ± SD),"[3]; oral antiemetic 0.3 mg/kg, one dog dropped",4.20 ± 1.92^d
same,Emetic Episodes (mean ± SD),[3]; oral antiemetic 1 mg/kg,1.50 ± 1.38^d
same,Emetic Episodes (mean ± SD),[4]; intravenous dose 1.0 μg/kg one hour after cisplatin 3.0 mg/kg IV,16.16 ± 5.14 ^
same,Emetic Episodes (mean ± SD),[4]; intravenous dose 3.0 μg/kg one hour after cisplatin 3.0 mg/kg IV,13.33 ± 4.17 ^
same,Emetic Episodes (mean ± SD),[4]; intravenous dose 10.0 μg/kg one hour after cisplatin 3.0 mg/kg IV,13.33 ± 3.01 ^
same,Emetic Episodes (mean ± SD),[4]; intravenous dose 30.0 μg/kg one hour after cisplatin 3.0 mg/kg IV,8.33 ± 3.20^
same,Emetic Episodes (mean ± SD),[4]; intravenous dose 100.0 μg/kg one hour after cisplatin 3.0 mg/kg IV,4.83 ± 2.40^b
same,Emetic Episodes (mean ± SD),[4]; intravenous dose 300.0 μg/kg one hour after cisplatin 3.0 mg/kg IV,1.00 ± 2.00^b
same,Emetic Episodes (mean ± SD),[4]; intravenous dose 1000.0 μg/kg one hour after cisplatin 3.0 mg/kg IV,1.16 ± 0.40^b
same,statistically minimally effective dose level,"[4]; intravenous, one hour after cisplatin",0.1 mg/kg
same,Emetic Episodes (mean ± SD),[5]; oral dose 1.0 μg/kg one hour before cisplatin,15.50 ± 3.93
same,Emetic Episodes (mean ± SD),[5]; oral dose 3.0 μg/kg one hour before cisplatin,14.83 ± 6.49
same,Emetic Episodes (mean ± SD),[5]; oral dose 10.0 μg/kg one hour before cisplatin,12.66 ± 3.01
same,Emetic Episodes (mean ± SD),[5]; oral dose 30.0 μg/kg one hour before cisplatin,18.33 ± 8.43
same,Emetic Episodes (mean ± SD),[5]; oral dose 100.0 μg/kg one hour before cisplatin,10.50 ± 3.14
same,Emetic Episodes (mean ± SD),[5]; oral dose 300.0 μg/kg one hour before cisplatin,3.16 ± 1.32^a
same,Emetic Episodes (mean ± SD),[5]; oral dose 1000.0 μg/kg one hour before cisplatin,2.00 ± 2.09^a
same,minimally effective dose (significant reduction in episodes),"[5]; oral, one hour before cisplatin",0.3 mg/kg
same,mean number of emetic episodes,[6],6.83
same,Emetic Episodes (mean ± SD),[7]; [8],5.83 ± 4.31
same,Emetic Episodes (mean ± SD),[7]; [9],3.50 ± 2.07^c
same,Emetic Episodes (mean ± SD),[7]; [10],5.33 ± 4.68
same,Emetic Episodes (mean ± SD),[7]; [11],4.67 ± 1.63^c
same,Emetic Episodes (mean ± SD),[7]; oral antiemetic 0.03 mg/kg,5.67 ± 2.50
same,Emetic Episodes (mean ± SD),[7]; oral antiemetic 0.1 mg/kg,8.50 ± 3.15
same,Emetic Episodes (mean ± SD),[7]; oral antiemetic 0.3 mg/kg,2.83 ± 3.71^d
same,Emetic Episodes (mean ± SD),[7]; oral antiemetic 1 mg/kg,0.00 ± 0.00^d
